Results taken from paper PMC6934949, “Calixmexitil: Calixarene-based Cluster of Mexiletine with Amplified Anti-myotonic Activity as A Novel Use-dependent Sodium Channel Blocker” (Iranian Journal of Pharmaceutical Research : IJPR, 2019).

Test system: T1, sodium channel (voltage-gated, skeletal muscle)
T1 construct: gene scn4a; native channel in single semitendinosus muscle fibers
Assay: three vaseline gap voltage clamp of Na+ current, phasic ([…] Hz use-dependent) block
Assay type: cell-based
Settings: read-out: Phasic block IC 50

IC50 [µM] | SMILES
31 | Cc1cccc(C)c1OCC(C)N (racemic) [Mexiletine, 1-(2,6-dimethylphenoxy)-2-propanamine]
3 | CC(N)COc1c2cccc1Cc1cccc(c1OCC(C)N)Cc1cccc(c1OCC(C)N)Cc1cccc(c1OCC(C)N)C2 (centres unmarked) [compound 4, Calixmexitil]
